Consider one compound from ChEMBL document CHEMBL1132553, “Design, synthesis, and biological evaluation of matrix metalloproteinase inhibitors derived from a modified proline scaffold” (J Med Chem, 1999).

Data set [1] deals with Stromelysin-1 (Homo sapiens, UniProt P08254). The data set can be described thus: In vitro inhibition activity of human recombinant stromelysin (Matrix metalloprotease-3).
Data set [2] deals with T1, Matrilysin (Homo sapiens, UniProt P09237).
T1 sequence (P09237 whole entry): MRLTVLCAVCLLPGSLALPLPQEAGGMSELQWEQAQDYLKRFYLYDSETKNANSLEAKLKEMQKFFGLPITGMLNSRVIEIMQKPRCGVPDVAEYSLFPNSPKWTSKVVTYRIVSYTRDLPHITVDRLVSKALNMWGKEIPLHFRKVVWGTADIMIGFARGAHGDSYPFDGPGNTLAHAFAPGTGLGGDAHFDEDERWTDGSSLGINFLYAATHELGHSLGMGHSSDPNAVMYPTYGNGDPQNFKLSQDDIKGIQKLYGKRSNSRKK
Kind of data set: In vitro inhibition of matrilysin (Matrix metalloprotease-7, MMP-7).

Data set [3] has as its target Collagenase 3 (Homo sapiens, UniProt P45452). Kind of data set: In vitro inhibition of human recombinant collagenase-3 (Matrix metalloprotease-13).
The target of data set [4] is T2, Interstitial collagenase (Homo sapiens, UniProt P03956).
T2 sequence (P03956 whole entry): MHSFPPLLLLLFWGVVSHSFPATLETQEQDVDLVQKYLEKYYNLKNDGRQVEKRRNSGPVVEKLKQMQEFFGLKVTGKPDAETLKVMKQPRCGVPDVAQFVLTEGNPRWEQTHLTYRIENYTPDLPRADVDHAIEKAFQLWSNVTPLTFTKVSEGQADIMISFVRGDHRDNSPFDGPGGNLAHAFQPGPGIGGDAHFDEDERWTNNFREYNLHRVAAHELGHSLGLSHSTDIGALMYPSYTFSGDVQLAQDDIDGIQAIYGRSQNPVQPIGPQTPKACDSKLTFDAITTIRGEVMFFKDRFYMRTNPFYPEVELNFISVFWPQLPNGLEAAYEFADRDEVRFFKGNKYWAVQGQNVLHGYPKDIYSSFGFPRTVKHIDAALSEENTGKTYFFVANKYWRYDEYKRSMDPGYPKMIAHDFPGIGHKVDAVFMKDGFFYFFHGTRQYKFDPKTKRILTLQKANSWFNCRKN
The data set can be described thus: In vitro inhibition of human recombinant collagenase-1 (Matrix metalloprotease-1, MMP-1).

The species named for data set [5] is Rattus norvegicus. The data set can be described thus: In vitro percent permeability into rat ileum; Range is 78-81. It is filed as ADME. The note with it: in vivo.
In data set [6] the target is 72 kDa type IV collagenase (Homo sapiens, UniProt P08253).
72 kDa type IV collagenase, sequence (P08253 whole entry): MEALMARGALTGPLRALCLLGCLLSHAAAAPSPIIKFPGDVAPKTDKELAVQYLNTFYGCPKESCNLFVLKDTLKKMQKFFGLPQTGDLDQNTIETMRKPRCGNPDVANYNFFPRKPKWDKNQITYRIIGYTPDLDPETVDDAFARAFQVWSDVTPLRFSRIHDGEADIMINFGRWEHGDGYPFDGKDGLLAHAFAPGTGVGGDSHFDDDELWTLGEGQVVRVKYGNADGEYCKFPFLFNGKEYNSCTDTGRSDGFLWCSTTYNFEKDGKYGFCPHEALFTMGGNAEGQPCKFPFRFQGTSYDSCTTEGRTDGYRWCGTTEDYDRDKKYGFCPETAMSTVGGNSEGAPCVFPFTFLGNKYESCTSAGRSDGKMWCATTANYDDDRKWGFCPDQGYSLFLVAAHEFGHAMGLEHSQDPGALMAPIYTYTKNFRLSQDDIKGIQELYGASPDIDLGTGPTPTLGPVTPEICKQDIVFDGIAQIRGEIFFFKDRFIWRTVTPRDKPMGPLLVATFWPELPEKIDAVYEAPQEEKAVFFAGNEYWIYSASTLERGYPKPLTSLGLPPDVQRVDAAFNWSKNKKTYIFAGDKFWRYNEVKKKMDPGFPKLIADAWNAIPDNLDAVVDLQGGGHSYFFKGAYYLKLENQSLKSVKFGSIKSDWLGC
Description: In vitro inhibitory activity against gelatinase-A (matrix metalloprotease-2).

Stromelysin-1, sequence (P08254 whole entry): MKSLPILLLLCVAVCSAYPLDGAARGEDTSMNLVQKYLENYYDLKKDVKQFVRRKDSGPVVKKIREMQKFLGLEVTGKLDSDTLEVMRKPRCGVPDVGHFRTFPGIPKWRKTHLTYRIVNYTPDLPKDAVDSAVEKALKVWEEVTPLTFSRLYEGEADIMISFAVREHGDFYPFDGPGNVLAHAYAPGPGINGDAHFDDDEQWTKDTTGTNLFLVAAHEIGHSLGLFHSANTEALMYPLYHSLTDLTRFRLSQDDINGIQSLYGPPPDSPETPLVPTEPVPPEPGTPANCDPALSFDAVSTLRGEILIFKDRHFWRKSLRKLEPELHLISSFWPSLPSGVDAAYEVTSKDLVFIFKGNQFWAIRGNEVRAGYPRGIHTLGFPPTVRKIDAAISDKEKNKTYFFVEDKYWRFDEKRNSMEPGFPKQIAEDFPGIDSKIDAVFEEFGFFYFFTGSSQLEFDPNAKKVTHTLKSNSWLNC

As for `CO/N=C1/C[C@H](C(=O)NO)N(S(=O)(=O)c2ccc(OC)cc2)C1`, the IC50 in data set [1] was 3 nM; in data set [2], 82 nM; in data set [3], less than 0.5 nM; in data set [4], 10 nM; in data set [6], less than 1 nM. For the same compound, the Absorption in data set [5] amounted to 81%.
